Experimental data from patent US9796741B2 (Achillion Pharmaceuticals, Inc., priority 2014, dated 2017).
Read-outs that look alike come from different tables or passages of the source.

Target: Human factor D (Homo sapiens (Human), UniProt P00746)
Assay: Human Factor D Assay
Format: biochemical
Procedure, shortened: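 Serum-purified factor D (80 nM final) preincubated 5 min at room temperature with compound in 50 mM Tris, 1M NaCl, pH 7.5. Z-L-Lys-SBzl and DTNB added at 100 μM each; OD405 followed kinetically over 30 min. IC50 by non-linear regression of % inhibition.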

[1] = human factor D 80 nM, substrate Z-L-Lys-SBzl, DTNB

Sequence of Human factor D (P00746 26-253): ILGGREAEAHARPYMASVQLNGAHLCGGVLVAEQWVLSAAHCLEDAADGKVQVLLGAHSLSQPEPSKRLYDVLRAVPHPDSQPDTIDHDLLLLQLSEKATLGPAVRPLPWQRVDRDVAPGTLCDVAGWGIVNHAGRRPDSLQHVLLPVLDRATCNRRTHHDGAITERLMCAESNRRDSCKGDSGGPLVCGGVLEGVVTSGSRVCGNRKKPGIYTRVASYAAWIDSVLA

CC(=O)c1cn(CC(=O)N2C[C@H](F)C[C@H]2C(=O)Nc2nc(-c3ccccc3Cl)ns2)c2ccc(-c3ccnnc3)cc12 [Compound 99, (2S,4R)-1-(2-(3-acetyl-5-(pyridazin-4-yl)-1H-indol-1-yl)acetyl)-N-(3-(2-chlorophenyl)-1,2,4-thiadiazol-5-yl)-4-fluoropyrrolidine-2-carboxamide] was tested, and the IC50 [1] was under 1 µM.
Work on CC(=O)c1cn(CC(=O)N2C[C@H](F)C[C@H]2C(=O)Nc2cccc(Br)n2)c2ccc(-c3ccccc3Cl)cc12 [Compound 100, (2S,4R)-1-(2-(3-acetyl-5-(2-chlorophenyl)-1H-indol-1-yl)acetyl)-N-(6-bromopyridin-2-yl)-4-fluoropyrrolidine-2-carboxamide] yielded an IC50 [1] of under 1 µM.
Compound Cc1ncc(-c2ccc3c(c2)c(C(N)=O)nn3CC(=O)N2C[C@H](F)C[C@H]2C(=O)Nc2cccc(Br)n2)cn1 [Compound 101, 1-(2-((2S,4R)-2-(6-bromopyridin-2-ylcarbamoyl)-4-fluoropyrrolidin-1-yl)-2-oxoethyl)-5-(2-methylpyrimidin-5-yl)-1H-indazole-3-carboxamide] has an IC50 [1] of under 1 µM.
For CC(=O)c1cn(CC(=O)N2C[C@H](F)C[C@H]2C(=O)Nc2cccc(-c3ccccc3Cl)c2F)c2ccc(-c3cnc(C)nc3)cc12 [Compound 102, (2S,4R)-1-(2-(3-acetyl-5-(2-methylpyrimidin-5-yl)-1H-indol-1-yl)acetyl)-N-(2′-chloro-2-fluorobiphenyl-3-yl)-4-fluoropyrrolidine-2-carboxamide], the IC50 [1] was under 1 µM.
For Cc1ncc(-c2ccc3c(c2)c(C(N)=O)nn3CC(=O)N2C[C@H](F)C[C@H]2C(=O)Nc2cccc(-c3ccccc3Cl)c2F)cn1 [Compound 103, 1-(2-((2S,4R)-2-(2′-chloro-2-fluorobiphenyl-3-ylcarbamoyl)-4-fluoropyrrolidin-1-yl)-2-oxoethyl)-5-(2-methylpyrimidin-5-yl)-1H-indazole-3-carboxamide], the IC50 [1] was under 1 µM.
Compound NC(=O)c1nn(CC(=O)N2C[C@H](F)C[C@H]2C(=O)Nc2cccc3c2CN(c2ccccn2)C3)c2ccc(-c3ccnnc3)cc12 [Compound 104, 1-(2-((2S,4R)-4-fluoro-2-(2-(pyridin-2-yl)isoindolin-4-ylcarbamoyl)pyrrolidin-1-yl)-2-oxoethyl)-5-(pyridazin-4-yl)-1H-indazole-3-carboxamide] has an IC50 [1] of over 10 µM.
Work on CC(=O)c1cn(CC(=O)N2C[C@H](F)C[C@H]2C(=O)Nc2cccc3c2CN(c2ccccn2)C3)c2ccc(-c3ccnnc3)cc12 [Compound 105, (2S,4R)-1-(2-(3-acetyl-5-(pyridazin-4-yl)-1H-indol-1-yl)acetyl)-4-fluoro-N-(2-(pyridin-2-yl)isoindolin-4-yl)pyrrolidine-2-carboxamide] yielded an IC50 [1] of over 10 µM.
CC(=O)c1cn(CC(=O)N2C[C@H](F)C[C@H]2C(=O)NC2CCCc3nc(-c4ccc(F)cc4)sc32)c2ccc(-c3ccnnc3)cc12 (stereo partly drawn) [Compound 106, (2S,4R)-1-(2-(3-acetyl-5-(pyridazin-4-yl)-1H-indol-1-yl)acetyl)-4-fluoro-N-(2-(4-fluorophenyl)-4,5,6,7-tetrahydrobenzo[d]thiazol-7-yl) pyrrolidine-2-carboxamide] showed an IC50 [1] of over 10 µM.
With NC(=O)c1nn(CC(=O)N2C[C@H](F)C[C@H]2C(=O)NC2CCCc3nc(-c4ccc(F)cc4)sc32)c2ccc(-c3ccnnc3)cc12 (stereo partly drawn) [Compound 107, 1-(2-((2S,4R)-4-fluoro-2-(2-(4-fluorophenyl)-4,5,6,7-tetrahydrobenzo[d]thiazol-7-ylcarbamoyl)pyrrolidin-1-yl)-2-oxoethyl)-5-(pyridazin-4-yl)-1H-indazole-3-carboxamide] the IC50 [1] was over 10 µM.
In the case of NC(=O)c1nn(CC(=O)N2C[C@H](F)C[C@H]2C(=O)Nc2ncc(Br)cn2)c2ccc(-c3ccnnc3)cc12 [Compound 109, 1-(2-((2S,4R)-2-(5-bromopyrimidin-2-ylcarbamoyl)-4-fluoropyrrolidin-1-yl)-2-oxoethyl)-5-(pyridazin-4-yl)-1H-indazole-3-carboxamide], the IC50 is reported as 1 to 10 µM.
With CC(=O)c1cn(CC(=O)N2C[C@H](F)C[C@H]2C(=O)Nc2ccc3ccccc3c2)c2ccc(-c3ccnnc3)cc12 [Compound 110, (2S,4R)-1-(2-(3-acetyl-5-(pyridazin-4-yl)-1H-indol-1-yl)acetyl)-4-fluoro-N-(naphthalen-2-yl)pyrrolidine-2-carboxamide] the IC50 [1] was over 10 µM.
For NC(=O)c1nn(CC(=O)N2C[C@H](F)C[C@H]2C(=O)Nc2noc3cc(C(F)(F)F)ccc23)c2ccc(-c3ccnnc3)cc12 [Compound 112, 1-(2-((2S,4R)-4-fluoro-2-(6-(trifluoromethyl)benzo[d]isoxazol-3-ylcarbamoyl)pyrrolidin-1-yl)-2-oxoethyl)-5-(pyridazin-4-yl)-1H-indazole-3-carboxamide], the IC50 [1] was over 10 µM.
In the case of Cc1cc(NC(=O)[C@@H]2C[C@@H](F)CN2C(=O)Cn2nc(C(N)=O)c3cc(-c4ccnnc4)ccc32)n2nc(C(F)(F)F)nc2n1 [Compound 113, 1-(2-((2S,4R)-4-fluoro-2-(5-methyl-2-(trifluoromethyl)-[1,2,4]triazolo[1,5-a]pyrimidin-7-ylcarbamoyl)pyrrolidin-1-yl)-2-oxoethyl)-5-(pyridazin-4-yl)-1H-indazole-3-carboxamide], the IC50 [1] is reported as over 10 µM.
NC(=O)c1nn(CC(=O)N2C[C@H](F)C[C@H]2C(=O)Nc2nnc(-c3ccccc3Cl)s2)c2ccc(-c3ccnnc3)cc12 [Compound 115, 1-(2-((2S,4R)-2-(5-(2-chlorophenyl)-1,3,4-thiadiazol-2-ylcarbamoyl)-4-fluoropyrrolidin-1-yl)-2-oxoethyl)-5-(pyridazin-4-yl)-1H-indazole-3-carboxamide] showed an IC50 [1] of over 10 µM.
In the case of CC(=O)c1cn(CC(=O)N2C[C@H](F)C[C@H]2C(=O)Nc2nnc(-c3ccc(Cl)c(Cl)c3)s2)c2ccc(-c3ccnnc3)cc12 [Compound 117, (2S,4R)-1-(2-(3-acetyl-5-(pyridazin-4-yl)-1H-indol-1-yl)acetyl)-N-(5-(3,4-dichlorophenyl)-1,3,4-thiadiazol-2-yl)-4-fluoropyrrolidine-2-carboxamide], the IC50 [1] is reported as over 10 µM.
For CC(=O)Nc1ncc(-c2ccc3c(c2)c(C(C)=O)cn3CC(=O)N2C[C@H](F)C[C@H]2C(=O)Nc2cccc(Br)n2)cn1 [Compound 118, (2S,4R)-1-(2-(5-(2-acetamidopyrimidin-5-yl)-3-acetyl-1H-indol-1-yl)acetyl)-N-(6-bromopyridin-2-yl)-4-fluoropyrrolidine-2-carboxamide], the IC50 [1] was under 1 µM.
CC(=O)c1cn(CC(=O)N2C[C@H](F)C[C@H]2C(=O)Nc2cccc(Br)n2)c2ccc(-c3cccc(Cl)c3)cc12 [Compound 119, (2S,4R)-1-(2-(3-acetyl-5-(3-chlorophenyl)-1H-indol-1-yl)acetyl)-N-(6-bromopyridin-2-yl)-4-fluoropyrrolidine-2-carboxamide] was tested, and the IC50 [1] was under 1 µM.
Compound CC(=O)c1cn(CC(=O)N2C[C@H](F)C[C@H]2C(=O)Nc2cccc(Br)n2)c2ccc(-c3ccc(C)nc3)cc12 [Compound 120, (2S,4R)-1-(2-(3-acetyl-5-(6-methylpyridin-3-yl)-1H-indol-1-yl)acetyl)-N-(6-bromopyridin-2-yl)-4-fluoropyrrolidine-2-carboxamide] has an IC50 [1] of under 1 µM.
With CC(=O)c1cn(CC(=O)N2C[C@H](F)C[C@H]2C(=O)Nc2cccc(-c3ccccc3Cl)c2F)c2ccc(-c3cnnc(C)c3)cc12 [Compound 121, (2S,4R)-1-(2-(3-acetyl-5-(6-methylpyridazin-4-yl)-1H-indol-1-yl)acetyl)-N-(2′-chloro-2-fluorobiphenyl-3-yl)-4-fluoropyrrolidine-2-carboxamide] the IC50 [1] was under 1 µM.
With COc1cc(C)cc2c1OCCC2NC(=O)[C@@H]1C[C@@H](F)CN1C(=O)Cn1nc(C(N)=O)c2cc(-c3ccnnc3)ccc21 (stereo partly drawn) [Compound 122, 1-(2-((2S,4R)-4-fluoro-2-(8-methoxy-6-methylchroman-4-ylcarbamoyl)pyrrolidin-1-yl)-2-oxoethyl)-5-(pyridazin-4-yl)-1H-indazole-3-carboxamide] the IC50 [1] was over 10 µM.
COc1cc(C)cc2c1OCCC2NC(=O)[C@@H]1C[C@@H](F)CN1C(=O)Cn1cc(C(C)=O)c2cc(-c3ccnnc3)ccc21 (stereo partly drawn) [Compound 123, (2S,4R)-1-(2-(3-acetyl-5-(pyridazin-4-yl)-1H-indol-1-yl)acetyl)-4-fluoro-N-(8-methoxy-6-methylchroman-4-yl)pyrrolidine-2-carboxamide] showed an IC50 [1] of over 10 µM.
With CC(=O)c1cn(CC(=O)N2C[C@H](F)C[C@H]2C(=O)NC2CCCN(c3cc(C)ccc3F)C2=O)c2ccc(-c3ccnnc3)cc12 (stereo partly drawn) [Compound 125, (2S,4R)-1-(2-(3-acetyl-5-(pyridazin-4-yl)-1H-indol-1-yl)acetyl)-4-fluoro-N-(1-(2-fluoro-5-methylphenyl)-2-oxopiperidin-3-yl)pyrrolidine-2-carboxamide] the IC50 was 1 to 10 µM.
With CC(=O)c1cn(CC(=O)N2C[C@H](F)C[C@H]2C(=O)Nc2cccc(Cl)c2C(F)(F)F)c2ccc(-c3ccnnc3)cc12 [Compound 126, (2S,4R)-1-(2-(3-acetyl-5-(pyridazin-4-yl)-1H-indol-1-yl)acetyl)-N-(3-chloro-2-(trifluoromethyl)phenyl)-4-fluoropyrrolidine-2-carboxamide] the IC50 [1] was over 10 µM.
CC(=O)c1cn(CC(=O)N2C[C@H](F)C[C@H]2C(=O)Nc2cncc(Br)n2)c2ccc(-c3ccnnc3)cc12 [Compound 127, (2S,4R)-1-(2-(3-acetyl-5-(pyridazin-4-yl)-1H-indol-1-yl)acetyl)-N-(6-bromopyrazin-2-yl)-4-fluoropyrrolidine-2-carboxamide] was tested, and the IC50 [1] was under 1 µM.
For NC(=O)c1nn(CC(=O)N2C[C@H](F)C[C@H]2C(=O)Nc2cncc(Br)n2)c2ccc(-c3ccnnc3)cc12 [Compound 128, 1-(2-((2S,4R)-2-(6-bromopyrazin-2-ylcarbamoyl)-4-fluoropyrrolidin-1-yl)-2-oxoethyl)-5-(pyridazin-4-yl)-1H-indazole-3-carboxamide], the IC50 [1] was under 1 µM.
In the case of NC(=O)c1nn(CC(=O)N2C[C@H](F)C[C@H]2C(=O)Nc2ccc3ccccc3c2)c2ccc(-c3ccnnc3)cc12 [Compound 131, 1-(2-((2S,4R)-4-fluoro-2-(naphthalen-2-ylcarbamoyl)pyrrolidin-1-yl)-2-oxoethyl)-5-(pyridazin-4-yl)-1H-indazole-3-carboxamide], the IC50 [1] is reported as over 10 µM.
